Test results as given in ChEMBL document CHEMBL4765493, “Berberine Directly Targets the NEK7 Protein to Block the NEK7-NLRP3 Interaction and Exert Anti-inflammatory Activity” (J Med Chem, 2021).
Active and inactive are the calls of the source. The calls are words filed in the database; no cut-off is given here.

How the values were obtained:
[1] = target: T1, Serine/threonine-protein kinase Nek7 (Homo sapiens, UniProt Q8TDX7); test: Binding affinity to NEK7 in PMA-differentiated human THP-1 cells incubated for 2 hrs by SDS-PAGE and LC-MS/MS analysis; assay type: cell-based
Target sequence in this assay (Q8TDX7 whole entry, looked up): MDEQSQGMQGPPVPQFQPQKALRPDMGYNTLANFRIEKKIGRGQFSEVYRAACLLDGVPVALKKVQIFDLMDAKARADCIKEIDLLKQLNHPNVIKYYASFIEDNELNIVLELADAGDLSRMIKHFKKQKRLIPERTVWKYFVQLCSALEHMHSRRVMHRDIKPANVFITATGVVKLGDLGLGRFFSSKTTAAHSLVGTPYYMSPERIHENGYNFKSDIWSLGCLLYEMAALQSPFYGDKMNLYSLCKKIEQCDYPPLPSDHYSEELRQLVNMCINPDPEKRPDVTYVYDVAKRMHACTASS

[2] = target: T2, Uridine-cytidine kinase 2 (Homo sapiens) (UniProt Q9BZX2); test: Binding affinity to UCK2 in PMA-differentiated human THP-1 cells incubated for 2 hrs by SDS-PAGE and LC-MS/MS analysis; assay type: cell-based
T2 sequence (whole entry): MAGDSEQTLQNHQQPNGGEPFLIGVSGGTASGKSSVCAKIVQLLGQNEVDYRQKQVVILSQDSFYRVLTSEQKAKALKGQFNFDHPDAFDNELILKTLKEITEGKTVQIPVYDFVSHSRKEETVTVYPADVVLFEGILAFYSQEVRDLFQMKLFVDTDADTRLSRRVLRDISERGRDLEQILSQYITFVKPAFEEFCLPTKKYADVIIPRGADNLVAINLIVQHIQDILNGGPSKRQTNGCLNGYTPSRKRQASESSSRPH

[3] = target: T3, Serine/threonine-protein phosphatase PGAM5, mitochondrial (Homo sapiens) (UniProt Q96HS1); test: Binding affinity to […] in PMA-differentiated human THP-1 cells incubated for 2 hrs by SDS-PAGE and LC-MS/MS analysis; assay type: cell-based
T3 sequence (whole entry): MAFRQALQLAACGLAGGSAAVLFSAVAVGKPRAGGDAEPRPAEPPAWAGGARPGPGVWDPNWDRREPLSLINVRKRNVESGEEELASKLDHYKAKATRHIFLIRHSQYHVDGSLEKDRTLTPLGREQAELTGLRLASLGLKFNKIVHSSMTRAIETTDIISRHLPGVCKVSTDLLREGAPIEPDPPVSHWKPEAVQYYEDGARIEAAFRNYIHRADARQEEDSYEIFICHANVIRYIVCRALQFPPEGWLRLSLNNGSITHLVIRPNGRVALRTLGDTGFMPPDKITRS

[4] = Inhibition of LPS + nigericin-induced IL-1beta secretion in PMA-differentiated human THP-1 cells at 20 uM incubated for 24 hrs by ELISA; assay type: functional
[5] = target: DIMT1 dimethyladenosine transferase 1 (Homo sapiens) (UniProt Q9UNQ2); test: Binding affinity to DIM1 in PMA-differentiated human THP-1 cells incubated for 2 hrs by SDS-PAGE and LC-MS/MS analysis
[6] = target: 28S rRNA (cytosine-C(5))-methyltransferase (Homo sapiens) (UniProt Q96P11); test: Binding affinity to NSUN5 in PMA-differentiated human THP-1 cells incubated for 2 hrs by SDS-PAGE and LC-MS/MS analysis; assay type: cell-based
[7] = target: Nicotinamide/nicotinic acid mononucleotide adenylyltransferase 1 (Homo sapiens) (UniProt Q9HAN9); test: Binding affinity to NMNAT1 in PMA-differentiated human THP-1 cells incubated for 2 hrs by SDS-PAGE and LC-MS/MS analysis; assay type: cell-based
[8] = target: T1, Serine/threonine-protein kinase Nek7; test: Binding affinity to human recombinant NEK7 incubated for 2 hrs by pull down assay; conditions: THP-1
Target sequence in this assay (Q8TDX7 whole entry, looked up): as the sequence (Q8TDX7 whole entry, looked up) above

[9] = target: T1, Serine/threonine-protein kinase Nek7; test: Binding affinity to NEK7 in PMA-differentiated human THP-1 cells incubated for 2 hrs by immunoblot analysis; assay type: cell-based
Target sequence in this assay (Q8TDX7 whole entry, looked up): as the sequence (Q8TDX7 whole entry, looked up) above

[10] = target: T1, Serine/threonine-protein kinase Nek7; test: Binding affinity to human recombinant NEK7 incubated for 2 hrs in presence of BBR by pull down assay
Target sequence in this assay (Q8TDX7 whole entry, looked up): as the sequence (Q8TDX7 whole entry, looked up) above

[11] = target: T1, Serine/threonine-protein kinase Nek7; test: Binding affinity to human recombinant NEK7 incubated for 2 hrs by pull down assay relative to control; conditions: THP-1
Target sequence in this assay (Q8TDX7 whole entry, looked up): as the sequence (Q8TDX7 whole entry, looked up) above

[12] = target: T1, Serine/threonine-protein kinase Nek7; test: Binding affinity to NEK7 in PMA-differentiated human THP-1 cells at 100 uM incubated for 8 hrs by streptavidin-bead enrichment and immunoblot assay; assay type: cell-based
Target sequence in this assay (Q8TDX7 whole entry, looked up): as the sequence (Q8TDX7 whole entry, looked up) above

THP-1 [13] = test: Inhibition of NEK7-NLRP3 interaction in human THP-1 cells incubated for 24 hrs by Co-IP assay; assay type: cell-based
HEK293 [14] = test: Inhibition of NEK7-NLRP3 interaction (unknown origin) expressed in HEK293 cells at 10 uM incubated for 24 hrs by Co-IP assay; assay type: cell-based; conditions: Homo sapiens
[15] = Toxicity in mouse BMDM cells assessed as induction of cell death up to 40 uM incubated for 24 hrs by MTS assay; assay type: cell-based
BMDM [16] = test: Inhibition of LPS + nigericin-induced IL-1beta secretion in mouse BMDM at 2.5 to 20 uM pre-treatment for 4 hrs before LPS + nigericin by immunoblot analysis; assay type: functional, tissue-based; conditions: dose 2.5-20 µM
[17] = target: T1, Serine/threonine-protein kinase Nek7; test: Binding affinity to NEK7 in PMA-differentiated human THP-1 cells assessed as reduction in Cy3-labeled target proteins at 100 uM incubated for 8 hrs using probe-16 by fluorescent gel imaging analysis; assay type: cell-based
THP-1 [18] = test: Inhibition of LPS + nigericin-induced NLRP3 expression in human THP-1 cells at 2.5 to 20 uM pre-treatment for 4 hrs before LPS + nigericin by immunoblot analysis; assay type: functional, cell-based; conditions: dose 2.5-20 µM
BMDM [19] = test: Inhibition of LPS + nigericin-induced pro-IL-1beta expression in mouse BMDM at 2.5 to 20 uM pre-treatment for 4 hrs before LPS + nigericin by immunoblot analysis; assay type: functional, tissue-based; conditions: dose 2.5-20 µM
BMDM [20] = test: Inhibition of LPS + nigericin-induced caspase-1 activation in mouse BMDM at 2.5 to 20 uM pre-treatment for 4 hrs before LPS + nigericin by immunoblot analysis; assay type: functional, tissue-based; conditions: dose 2.5-20 µM
[21] = Toxicity in mouse BMDM cells assessed as induction of apoptosis by measuring cleaved caspase-9 levels up to 40 uM incubated for 24 hrs by immunoblot analysis; assay type: cell-based
[22] = target: T1, Serine/threonine-protein kinase Nek7; test: Inhibition of purified recombinant human NEK7 incubated for 15 mins before ATP and substrate addition and further incubated for 40 mins by ADPGlo kinase assay
Target sequence in this assay (Q8TDX7 whole entry): as the sequence (Q8TDX7 whole entry, looked up) above

BMDM [23] = test: Inhibition of LPS + nigericin-induced NLRP3 expression in mouse BMDM at 2.5 to 20 uM pre-treatment for 4 hrs before LPS + nigericin by immunoblot analysis; assay type: functional, tissue-based; conditions: dose 2.5-20 µM
[24] = target: T1, Serine/threonine-protein kinase Nek7; test: Binding affinity to purified recombinant human NEK7 by SPR analysis
Target sequence in this assay (Q8TDX7 whole entry): as the sequence (Q8TDX7 whole entry, looked up) above

THP-1 [25] = test: Inhibition of LPS + nigericin-induced caspase-1 activation in human THP-1 cells pre-treatment for 4 hrs before LPS + nigericin by immunoblot analysis; assay type: functional, cell-based
Mus musculus [26] = test: Antiinflammatory activity in NEK7 wild type C57BL/6 mouse model assessed as reduction in lesion in heart in at 5 mg/kg, ip dosed three times every 12 hrs followed by LPS challenge by H and E staining; assay type: functional, organism-based
THP-1 [27] = test: Inhibition of LPS + nigericin-induced ASC-pyroptosome formation in human THP-1 cells at 5 to 10 uM uM pre-treatment for 4 hrs before LPS + nigericin addition by immunofluorescence analysis; assay type: functional, cell-based; conditions: dose 5-10 µM
[28] = Toxicity in mouse BMDM cells assessed as induction of apoptosis by measuring cleaved caspase-3 levels up to 40 uM incubated for 24 hrs by immunoblot analysis; assay type: cell-based
[29] = Toxicity in mouse BMDM cells assessed as induction of apoptosis by measuring cleaved caspase-7 levels up to 40 uM incubated for 24 hrs by immunoblot analysis; assay type: cell-based
THP-1 [30] = test: Inhibition of AIM2-induced IL-1beta activation in human THP-1 cells at 10 uM pre-treatment for 2 hrs before AIM2 addition; assay type: functional, cell-based
Mus musculus [31] = test: Antiinflammatory activity in NEK7 wild type C57BL/6 mouse model assessed as reduction in inflammatory infiltration in liver at 5 mg/kg, ip dosed three times every 12 hrs followed by LPS challenge by H and E staining; assay type: functional, organism-based
Mus musculus [32] = test: Antiinflammatory activity in NEK7 wild type C57BL/6 mouse model assessed as reduction in lesion in spleen in at 5 mg/kg, ip dosed three times every 12 hrs followed by LPS challenge by H and E staining; assay type: functional, organism-based
Mus musculus [33] = test: Inhibition of serum IL-1beta production in NEK7 wild type C57BL/6 mouse model at 5 mg/kg, ip dosed three times every 12 hrs followed by LPS challenge by ELISA; assay type: functional, organism-based
Mus musculus [34] = test: Antiinflammatory activity in NEK7 wild type C57BL/6 mouse model assessed as reduction in lesion in lung in at 5 mg/kg, ip dosed three times every 12 hrs followed by LPS challenge by H and E staining; assay type: functional, organism-based
HEK293 [35] = test: Inhibition of NEK7-NLRP3 interaction (unknown origin) expressed in HEK293 cells incubated for 24 hrs by Co-IP assay; assay type: cell-based; conditions: Homo sapiens
THP-1 [36] = test: Inhibition of LPS + nigericin-induced pro-IL-beta expression in human THP-1 cells at 2.5 to 20 uM pre-treatment for 4 hrs before LPS + nigericin by immunoblot analysis; assay type: functional, cell-based; conditions: dose 2.5-20 µM
Mus musculus [37] = test: Inhibition of serum IL-1beta production in NEK7 knockdown C57BL/6 mouse model at 5 mg/kg, ip dosed three times every 12 hrs followed by LPS challenge by ELISA; assay type: functional, organism-based
[38] = Inhibition of LPS + nigericin-induced IL-1beta secretion in PMA-differentiated human THP-1 cells incubated for 1 to 24 hrs by Immunoblot analysis; assay type: functional, cell-based
HEK293 [39] = test: Inhibition of NEK7 R121A mutant-NLRP3 interaction (unknown origin) expressed in HEK293 cells at 10 uM incubated for 24 hrs by Co-IP assay; assay type: cell-based; conditions: Homo sapiens
THP-1 [40] = test: Inhibition of LPS + nigericin-induced IL-1beta secretion in human THP-1 cells pre-treatment for 4 hrs before LPS + nigericin by immunoblot analysis; assay type: functional, cell-based
Mus musculus [41] = test: Antiinflammatory activity in NEK7 wild type C57BL/6 mouse model assessed as reduction in lesion in kidney in at 5 mg/kg, ip dosed three times every 12 hrs followed by LPS challenge by H and E staining; assay type: functional, organism-based

Chain of DIMT1 dimethyladenosine transferase 1 (Homo sapiens) (Q9UNQ2 whole entry, looked up): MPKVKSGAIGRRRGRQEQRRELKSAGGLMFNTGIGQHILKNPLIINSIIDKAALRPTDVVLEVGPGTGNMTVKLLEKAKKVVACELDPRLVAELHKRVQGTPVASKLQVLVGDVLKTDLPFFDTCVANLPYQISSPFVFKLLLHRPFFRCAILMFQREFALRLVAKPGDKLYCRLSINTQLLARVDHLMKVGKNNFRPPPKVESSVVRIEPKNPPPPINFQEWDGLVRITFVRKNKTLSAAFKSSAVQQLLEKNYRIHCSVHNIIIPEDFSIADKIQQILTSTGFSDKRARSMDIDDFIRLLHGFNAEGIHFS
Chain of 28S rRNA (cytosine-C(5))-methyltransferase (Homo sapiens) (Q96P11 whole entry): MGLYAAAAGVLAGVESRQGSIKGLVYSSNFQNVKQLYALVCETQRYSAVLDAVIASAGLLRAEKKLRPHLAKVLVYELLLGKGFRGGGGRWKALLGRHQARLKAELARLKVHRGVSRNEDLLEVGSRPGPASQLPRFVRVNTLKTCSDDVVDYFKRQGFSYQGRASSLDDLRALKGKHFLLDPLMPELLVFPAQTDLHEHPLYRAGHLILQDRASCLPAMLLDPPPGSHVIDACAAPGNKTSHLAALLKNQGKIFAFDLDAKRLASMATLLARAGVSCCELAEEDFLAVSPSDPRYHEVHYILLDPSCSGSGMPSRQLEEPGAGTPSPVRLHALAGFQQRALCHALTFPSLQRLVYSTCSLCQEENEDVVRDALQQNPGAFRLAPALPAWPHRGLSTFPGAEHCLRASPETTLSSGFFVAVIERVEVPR
Chain of Nicotinamide/nicotinic acid mononucleotide adenylyltransferase 1 (Homo sapiens) (Q9HAN9 whole entry): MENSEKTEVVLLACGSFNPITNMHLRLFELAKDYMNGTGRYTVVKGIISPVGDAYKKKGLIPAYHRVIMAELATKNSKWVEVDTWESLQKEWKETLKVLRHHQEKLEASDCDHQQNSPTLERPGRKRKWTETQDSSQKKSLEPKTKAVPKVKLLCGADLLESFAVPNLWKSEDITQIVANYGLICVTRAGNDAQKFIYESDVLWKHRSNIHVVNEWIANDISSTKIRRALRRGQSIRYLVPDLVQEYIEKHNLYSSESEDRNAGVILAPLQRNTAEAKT

In the case of `COc1cc2c(cc1OC)-c1cc3ccc(OC)c(OCCOCCOCCNC(=O)CCCC[C@@H]4SC[C@@H]5NC(=O)N[C@@H]54)c3c[n+]1CC2`, the Activity [1] is reported as “inactive”, the Activity [2] is reported as “inactive” and the Activity [3] is reported as “inactive”. For the same compound, the inhibition at 20 µM [4] was -78%, the Activity [5] was “inactive” and the Activity [6] was “inactive”. For the same compound, the Activity [7] was “inactive”.
Compound `COc1cc2c(cc1OCCOCCNC(=O)CCCC[C@@H]1SC[C@@H]3NC(=O)N[C@@H]31)CC[n+]1cc3c(OC)c(OC)ccc3cc1-2` has an inhibition at 20 µM [4] of 75%.
Compound `C#CCOCCOc1cc(C2(C(F)(F)F)N=N2)ccc1C(=O)NCCOCCOCCOc1ccc2cc3[n+](cc2c1OC)CCc1cc2c(cc1-3)OCO2` has an inhibition at 20 µM [4] of 80%.
With `COc1cc2c(cc1OC)-c1cc3ccc(OC)c(OCCCCCNC(=O)CCCC[C@@H]4SC[C@@H]5NC(=O)N[C@@H]54)c3c[n+]1CC2` the inhibition at 20 µM [4] was 77%.
`COc1ccc2cc3[n+](cc2c1OCCCNC(=O)CCCC[C@@H]1SC[C@@H]2NC(=O)N[C@@H]21)CCc1cc2c(cc1-3)OCO2` showed an inhibition at 20 µM [4] of -92%.
In the case of `COc1c(OCCOCCOCCNC(=O)CCCC[C@@H]2SC[C@@H]3NC(=O)N[C@@H]32)ccc2cc3[n+](cc12)CCc1cc2c(cc1-3)OCO2`, the Activity [8] is reported as “Active”, the Activity [9] is reported as “Active” and the Activity [1] is reported as “Active”. The Activity [2] was “Active”, the Activity [3] was “Active” and the Activity [10] was “inactive”. For the same compound, the inhibition at 20 µM [4] was 83%, the Activity [5] was “Active” and the Activity [6] was “Active”. The Activity [11] was “Dose-dependent effect” and the Activity [7] was “Active”.
For `COc1c(OCCCNC(=O)CCCC[C@@H]2SC[C@@H]3NC(=O)N[C@@H]32)ccc2cc3[n+](cc12)CCc1cc2c(cc1-3)OCO2`, the inhibition at 20 µM [4] was 38%.
In the case of `COc1ccc2cc3[n+](cc2c1OC)CCc1cc2c(cc1-3)OCO2.[Cl-]` [BERBERINE CHLORIDE], the Activity [12] is reported as “Active”, the inhibition (THP-1 [13]) is reported as “Dose-dependent effect” and the inhibition (HEK293 [14]) is reported as “Active”. The Activity [15] was “Non-Toxic”, the inhibition (BMDM [16]) was “Active” and the Activity [17] was “Active”. The inhibition (THP-1 [18]) was “inactive”, the inhibition (BMDM [19]) was “inactive” and the inhibition (BMDM [20]) was “Active”. The Activity [21] was “Non-Toxic”, the IC50 [22] was 4.2 µM and the inhibition (BMDM [23]) was “inactive”. For the same compound, the Kd [24] was 15.6 µM, the inhibition (THP-1 [25]) was “Active” and the Activity (Mus musculus [26]) was “Active”. For the same compound, the inhibition (THP-1 [27]) was “Active”, the Activity [28] was “Non-Toxic” and the Activity [29] was “Non-Toxic”. The inhibition (THP-1 [30]) was “inactive”, the Activity (Mus musculus [31]) was “Active” and the inhibition at 20 µM [4] was 72%. For the same compound, the Activity (Mus musculus [32]) was “Active”, the Activity (Mus musculus [33]) was “Active” and the Activity (Mus musculus [34]) was “Active”. The inhibition (HEK293 [35]) was “Dose-dependent effect”, the inhibition (THP-1 [36]) was “inactive” and the Activity (Mus musculus [37]) was “inactive”. The IC50 [38] was 5.1 µM, the inhibition (HEK293 [39]) was “inactive” and the inhibition (THP-1 [40]) was “Active”. For the same compound, the Activity (Mus musculus [41]) was “Active”.
In the case of `COc1cc2c(cc1OC)-c1cc3ccc(OC)c(OC)c3c[n+]1CC2`, the inhibition (HEK293 [14]) is reported as “inactive”.
For `COc1cc2c(cc1OC)-c1cc3ccc(OC)c(OCCCNC(=O)CCCC[C@@H]4SC[C@@H]5NC(=O)N[C@@H]54)c3c[n+]1CC2`, the inhibition at 20 µM [4] was 80%.
